Among the data in patent US20250066344A1 (BRISTOL-MYERS SQUIBB COMPANY, priority 2021, published 2025) are EC50 and first-phase pharmacokinetic half-life values, retold here.

One data set concerns the target T1, human RXFP1 (Homo sapiens, UniProt Q9HBX9).
T1 construct: expressed in transfected cells
T1 sequence (Q9HBX9 1-757): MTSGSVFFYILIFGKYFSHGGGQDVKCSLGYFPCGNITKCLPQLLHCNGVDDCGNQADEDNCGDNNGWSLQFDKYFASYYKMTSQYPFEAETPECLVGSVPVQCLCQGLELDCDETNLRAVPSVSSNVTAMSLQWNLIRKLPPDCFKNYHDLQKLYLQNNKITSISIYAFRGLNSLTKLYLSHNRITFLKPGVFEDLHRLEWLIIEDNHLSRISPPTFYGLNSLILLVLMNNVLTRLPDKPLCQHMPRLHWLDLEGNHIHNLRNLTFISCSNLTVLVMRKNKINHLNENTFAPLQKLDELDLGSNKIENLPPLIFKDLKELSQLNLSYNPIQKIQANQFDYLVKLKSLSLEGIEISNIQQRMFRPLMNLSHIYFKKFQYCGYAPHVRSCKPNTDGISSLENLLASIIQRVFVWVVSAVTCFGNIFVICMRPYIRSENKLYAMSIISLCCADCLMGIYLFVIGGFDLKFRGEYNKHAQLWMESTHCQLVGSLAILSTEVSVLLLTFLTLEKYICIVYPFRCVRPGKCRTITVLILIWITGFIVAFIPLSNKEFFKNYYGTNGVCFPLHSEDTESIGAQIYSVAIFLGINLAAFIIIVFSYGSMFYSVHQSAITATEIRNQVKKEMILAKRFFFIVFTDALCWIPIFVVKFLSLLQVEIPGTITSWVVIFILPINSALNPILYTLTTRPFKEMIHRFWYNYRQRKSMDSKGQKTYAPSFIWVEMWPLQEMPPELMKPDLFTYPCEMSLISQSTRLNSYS
Briefly: RXFP1 cyclic adenosine monophosphate (cAMP) assay, hRXFP1 HEK293. The data set is classed as cell-based. To be noted: HEK293 cells stably expressing human RXFP1; 30 min at room temperature; HTRF cAMP. The method, boiled down:
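HEK293 cells stably expressing human RXFP1 were exposed to compounds (0.010 nM–50 μM, 2% DMSO) for 30 min at room temperature in HBSS/HEPES buffer with 0.5 mM IBMX. Intracellular cAMP was measured by HTRF against a cAMP standard curve; EC50 from 4-parameter logistic fit.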
For orientation: In TR-FRET formats the signal depends on donor and acceptor labels being close together.
In general, EC50 refers to the concentration needed to bring the measured effect to its halfway point. Low values mean greater potency, high ones weaker potency. Compound `COc1ccc(C2CC3(CNC3)C2)cc1C(=O)Nc1cc2c(cc1C(=O)Nc1ccc(F)c(C(F)(F)F)c1)OC(F)(F)O2` [Example 92, 2,2-difluoro-N-(4-fluoro-3-(trifluoromethyl)phenyl)-6-(2-methoxy-5-(2-azaspiro[3.3]heptan-6-yl)benzamido)benzo[d] [1,3]dioxole-5-carboxamide] showed an EC50 of 2.64 µM.

`COc1ccc(C2CCCN(C3COC3)CC2)cc1C(=O)Nc1cc2c(cc1C(=O)Nc1ccc(F)c(C(F)(F)F)c1)OC(F)(F)O2` (stereo not drawn) [Example 95, 2,2-difluoro-N-(4-fluoro-3-(trifluoromethyl)phenyl)-6-(2-methoxy-5-(1-(oxetan-3-yl)azepan-4-yl)benzamido)benzo[d] [1,3]dioxole-5-carboxamide]: the EC50 was found to be 0.862 µM.

Regarding `COc1ccc(C2=NOC(C(C)(C)O)C2)cc1C(=O)Nc1cc2c(cc1C(=O)Nc1ccc(F)c(C(F)(F)F)c1)OC(F)(F)O2` (single isomer, unassigned) [Example 76, 2,2-difluoro-N-(4-fluoro-3-(trifluoromethyl)phenyl)-6-(5-(5-(2-hydroxypropan-2-yl)-4,5-dihydroisoxazol-3-yl)-2-methoxybenzamido) benzo[d][1,3]dioxole-5-carboxamide], the EC50 amounted to 0.258 µM.

`COc1ccc(C(=O)N2CC[C@@H](O)C2)cc1C(=O)Nc1cc2c(cc1C(=O)Nc1ccc(F)c(C(F)(F)F)c1)OC(F)(F)O2` [Example 40, (R)-2,2-difluoro-N-(4-fluoro-3-(trifluoromethyl)phenyl)-6-(5-(3-hydroxypyrrolidine-1-carbonyl)-2-methoxybenzamido) benzo[d][1,3]dioxole-5-carboxamide]: a half-maximal response (EC50) required 0.196 µM.

With `COc1ccc(C2=NOC3C4CC(C(=O)N4)C23)cc1C(=O)Nc1cc2nc(C)sc2cc1C(=O)Nc1ccc(F)c(C(F)(F)F)c1` (stereo not drawn) [Example 15, N-(4-fluoro-3-(trifluoro-methyl)phen-yl)-5-(2-meth-oxy-5-(5-oxo-3a,4,5,6,7,7a-hexahydro-4,7-methano-isoxazolo[5,4-c]pyridin-3-yl)benzami-do)-2-methyl-benzo[d]thi-azole-6-car-boxamide], the EC50 came out at 0.18 µM. This EC50 and that of the compound before are within 1.5-fold of each other.

For `COc1ccc(C(=O)N(C)CCS(C)(=O)=O)cc1C(=O)Nc1cc2c(cc1C(=O)Nc1ccc(F)c(C(F)(F)F)c1)OC(F)(F)O2` [Example 41], the response was half-maximal at 0.562 µM (EC50). Against the preceding compound, the EC50 is about 3.1-fold higher.

On to `COc1ccc(CN2CC3(C2)CS(=O)(=O)C3)cc1C(=O)Nc1cc2c(cc1C(=O)Nc1ccc(F)c(C(F)(F)F)c1)OC(F)(F)O2` [Example 88, 6-(5-((2,2-dioxido-2-thia-6-azaspiro[3.3]heptan-6-yl)methyl)-2-methoxybenzamido)-2,2-difluoro-N-(4-fluoro-3-(trifluoromethyl)phenyl) benzo[d][1,3]dioxole-5-carboxamide], for which the response was half-maximal at 0.274 µM (EC50).

Turning to `COc1ccc(-c2cnc3n2CCN(C2COC2)C3)cc1C(=O)Nc1cc2c(cc1C(=O)Nc1ccc(F)c(C(F)(F)F)c1)OC(F)(F)O2` [Example 81, 2,2-difluoro-N-(4-fluoro-3-(trifluoromethyl)phenyl)-6-(2-methoxy-5-(7-(oxetan-3-yl)-5,6,7,8-tetrahydroimidazo[1,2-a]pyrazin-3-yl)benzamido)benzo[d] [1,3]dioxole-5-carboxamide], the midpoint of the response, the EC50, lay at 0.282 µM.

Compound `COc1ccc(C2=NOC3COCC23)cc1C(=O)Nc1cc2nc(C)sc2cc1C(=O)Nc1ccc(F)c(C(F)(F)F)c1` (single isomer, unassigned) [Example 2, N-(4-fluoro-3-(trifluoromethyl)phenyl)-5-(2-methoxy-5-(3a,4,6,6a-tetrahydrofuro[3,4-d]isoxazol-3-yl)benzamido)-2-methylbenzo[d]thiazole-6-carboxamide] yielded an EC50 of 1 µM.

Take `COc1ccc(C2=NOC3(CCN(C(=O)CO)CC3)C2)cc1C(=O)Nc1cc2c(cc1C(=O)Nc1ccc(F)c(C(F)(F)F)c1)OC(F)(F)O2` [Example 68, 2,2-difluoro-N-(4-fluoro-3-(trifluoromethyl)phenyl)-6-(5-(8-(2-hydroxyacetyl)-1-oxa-2,8-diazaspiro[4.5]dec-2-en-3-yl)-2-methoxybenzamido) benzo[d][1,3]dioxole-5-carboxamide]: a half-maximal effect (EC50) was put at 0.173 µM.

In turn, `CC1(C)Cc2cc(C3=NOC4CC(CO)CC34)cc(C(=O)Nc3cc4c(cc3C(=O)Nc3ccc(F)c(C(F)(F)F)c3)OC(F)(F)O4)c2O1` (stereo not drawn) [Example 100, 2,2-difluoro-N-(4-fluoro-3-(trifluoromethyl)phenyl)-6-(5-(5-(hydroxymethyl)-3a,5,6,6a-tetrahydro-4H-cyclopentafdlisoxazol-3-yl)-2,2-dimethyl-2,3-dihydrobenzofuran-7-carboxamido)benzo[d] [1,3]dioxole-5-carboxamide] registered a concentration giving a half-maximal response (EC50) of 0.0084 µM.

Tested on in another data set: not given
Assay: not given
The conditions noted are these: intravenous (IV) formulation; cited from earlier work.
In the case of Serelaxin, the first-phase pharmacokinetic half-life was 5.4 min.
